The target in test [1] is T1, BAX-4C R134E R145E (Homo sapiens, UniProt Q07812, C126S/C62S/R134E/R145E/S4C).
T1 construct: Human full-length (1-192) wild-type BAX (Q07812); made in house; host or cells: E. coli BL21 (DE3) CodonPlus (DE3)-RIPL
Nature of the test: Microscale thermophoresis (MST) direct binding, double mutant. The note with it: double mutant versus wild type BAX-4C. As to the method:
Recombinant BAX C62S-C126S-S5C (4C), previously established for evaluating BAX (Garner, T.P., et al. Nat Chem Biol 15, 322-330 (2019)) binding compounds with MST, or BAX C62S-C126S-S5C-R134E-R145E (R134E-R145E-4C) was labeled at cysteine using the Monolith Protein Labeling Kit Red Maleimide (NanoTemper Technologies) according to the instructions of the manufacturer (Garner, T.P., et al. Nat Chem Biol 15, 322-330 (2019)). Briefly, 10 µM protein was incubated with 0.9 equivalents of dye in MST buffer (100 mM potassium phosphate, pH 7.4, 150 mM NaCI) in the dark at room temperature (22-25° C.) for 1 hr. Unreacted dye was quenched using 5 mM DTT and removed using the manufacturer-provided buffer exchange column. […] Samples were loaded into standard glass capillaries (Monolith NT.155 Capillaries) and analyzed by MST using a Monolith NT.115 Blue/Red, LED power and IR laser power of 80%. Fraction bound and error was generated by NanoTemper software (MO.Affinity Analysis), and KD values were determined using GraphPad Prism nonlinear fit four-parameter agonist versus response with restraints for 0 and 1 fraction bound.
With this known, the EO docking poses were reevaluated, and the top pose featuring an ionic interaction between the EO-carboxylate and sidechain of R145 was analyzed (FIGS. 2E, 2F, and 2G). […]

Test [2] concerns the target T2, BAX R134E (Homo sapiens, UniProt Q07812, R134E).
T2 construct: Human full-length (1-192) wild-type BAX (Q07812); made in house; host or cells: E. coli BL21 (DE3) CodonPlus (DE3)-RIPL
Kind of test: Liposomal permeabilization assay, trigger site mutant R134E. The class given is biochemical. Conditions: 250 nM BAX and 5 nM tBID. How it is done: Lipids (Avanti Polar Lipids) at the following ratio, phosphatidylcholine 48%, phosphatidylinositol 10%, dioleoyl phosphatidylserine 10%, phosphatidylethanolamine, 28%, and tetraoleoyl cardiolipin 4%, were mixed in a total of 1 mg, dried and resuspended in 10 mM HEPES, pH 7, 200 mM KCI, and 5 mM MgCl2 with 12.5 mM 8-aminonaphthalene-1,3,6-trisulfonic acid (ANTS) dye and 45 mM p-xylene-bis-pyridinium bromide (DPX) quencher (Molecular Probes) using a water bath sonicator. Liposomes were formed by extrusion of the suspension using Avanti Mini-Extruder (Cat # 610000) with polycarbonate membranes of 0.1 µm pore size (Avanti Polar Lipids). […] ANTS/DPX release was quantified based on the increase in fluorescence intensity that occurs when the ANTS fluorophore is separated from the DPX quencher upon release from the liposomes into solution. Fluorescence (λex = 355 nm and λem = 520 nm) was measured at 1 minute intervals at room temperature (22-25° C.) indicated using a Tecan Infinite M1000 plate reader. In the case of heat activation, reactions were set up as described in the absence of tBID or BIM, and experiments were recorded at 42° C. The percentage release of ANTS/DPX at any given time point was calculated as percentage release=((F-F0)/(F100-F0))(100), where F0 and F100 are baseline and maximal fluorescence, respectively. […]

Test [3] relates to platelets of C57BL/6J mice. Kind of test: In vivo mouse platelet experiments. Conditions: co-administration: ABT-263 25 mg/kg + EO 100 mg/kg then 50 mg/kg 3 hrs later, oral gavage, 24 hours. How it is done:
Wild type black mice strain C57BL/6J were treated with vehicle, ABT-263 (25 mg/kg, single dose), EO (100 mg/kg, then 3 hrs later 50 mg/kg), or a combination of ABT-263 and EO. EO was formulated in dH2O, and ABT-263 was formulated in 10% ethanol, 30% polyethylene glycol 400, and 60% Phosal 50 PG. Both ABT-263 and EO were administered by oral gavage. Blood samples were collected by submandibular bleed before treatment and 24 hours following treatment, and CBC was acquired. Percentage platelet protection was calculated as follows: % Platelet Protection = (100)(Px - mPABT)/(mPv - mPABT) where Px is the platelet count for a given mouse, mPv is the mean vehicle treated platelet count, and mPABT is the mean ABT-263 treated platelet count. Statistical analysis was performed using one-way ANOVA with select multiple comparisons as shown.
Finally, whether EO can rescue thrombocytopenia induced by the activity of navitoclax was evaluated in mice. The use of navitoclax is limited by on-target toxicity triggering BAK/BAX-mediated platelet apoptosis (Zhang, H. et al. Cell Death Differ 14, 943-951 (2007)). […] This EO effect is distinct from its capacity to stimulate platelet production by differentiation of the megakaryocyte precursors and progenitor cells, which requires 5 days to begin (Erickson-Miller, C. L. et al. Stem Cells 27, 424-430 (2009); Jenkins, J. M. et al. Blood 109, 4739-4741 (2007)).

T2 sequence (Q07812 whole entry R134E): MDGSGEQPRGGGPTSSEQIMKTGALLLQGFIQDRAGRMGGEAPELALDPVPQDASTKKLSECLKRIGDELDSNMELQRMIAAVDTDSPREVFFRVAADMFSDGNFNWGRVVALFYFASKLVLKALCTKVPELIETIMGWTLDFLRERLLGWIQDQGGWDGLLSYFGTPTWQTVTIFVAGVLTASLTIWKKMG
T1 sequence (Q07812 whole entry S4C/C62S/C126S/R134E/R145E): as the sequence (Q07812 whole entry R134E) above, with S4C, C62S, C126S, R145E counted along it

Take `CC1=NN(c2ccc(C)c(C)c2)C(=O)/C1=N\Nc1cccc(-c2cccc(C(=O)O)c2)c1O` [EO, eltrombopag]: the “affinity as determined by MST” value in test [1] is given as “markedly reduced affinity”. Further, the “inhibition of liposomal release versus BAX WT” value in test [2] is reported as “slight trend towards weaker inhibition”. Besides, the navitoclax-induced platelet loss result in test [3] is given as “markedly inhibited platelet loss to acceptable levels”.

These data come from patent publication US20230270721A1, “INHIBITION OF BAX-MEDIATED CELL DEATH BY ELTROMBOPAG” (Albert Einstein College of Medicine, priority 2020, published 2023).
